SMILES strings stand for the structures.

For one assay, the system named is Sirt1. The experiment in a line: Sirt1 protein in myocytes by Western blotting. Type of assay: cell-based, rat. The note with it: 40 μM, 24 h. As for the experimental part: c. […] Protein was then extracted and analyzed by Western blotting.
b. Cultured adult rat cardiac myocytes were treated with miR-199a eraser for 24 h or HPC. Protein was extracted and analyzed by Western blotting for the molecules indicated on the left of each panel (n=3).
(§1) Cellular fractionation and Western blotting—Mitochondria was isolated using ProteoExtract Cytosol/Mitochondria Fractionation Kit (Calbiochem, NJ), according to the manufacturer's protocol. Fifteen μg of protein was separated on a 4% to 20% gradient SDS-PAGE (Criterion gels, Bio-Rad, CA) and transferred onto TransBlot Transfer membrane (Bio-Rad, CA).
(In general: A western blot detects proteins with antibodies after separation by electrophoresis.)

Assay [1] relates to prolyl hydroxylase 2 (PHD2). The experiment in a line: PHD2 protein in myocytes by Western blotting. The note with it: myocytes overexpressing Sirt1, 20 mM. In kind it is cell-based, rat. Here is the method:
b. Myocytes were treated as described in (a.) and as indicated in the grid by + signs. Protein was extracted and analyzed by Western blotting (n=3).
d. Myocytes were subjected to 24 h anoxia or HPC, before or after treatment with a control or miR-199a-expressing virus for 24 h where indicated by + signs. Protein was extracted and analyzed by Western blotting for the molecules indicated on the left.
e. Myocytes were treated with a control or Sirt1-overexpressing virus in the absence or presence or 20 mM nicotinamide (NAM). Protein was extracted and analyzed by Western blotting (n=3).
as §1

For a further assay, the system named is miR-21. The assay is described as follows: Northern blotting of miR-21 in cardiocytes. In kind it is cell-based. The note with it: isolated rat cardiocytes. The source says:
(§2) Northern blotting—As previously described.
In order to address the role of miR-21 in cardiocytes a 320 nt sequence that encompasses the miR-21 stem-loop was cloned into a recombinant adenovirus (FIG. 8a). A tandem repeat of the anti-sense sequence of mature miR-21 was also cloned under the control of the U6 promoter (FIG. 8a). […] For that reason this construct was dubbed ‘miR-21 eraser’.

Another assay relates to SPRY2. The experiment in a line: SPRY2 protein in cardiocytes (Western blot, immunostaining). In kind it is cell-based, rat. The settings on record: isoproterenol and β2AR. The source says: Using Western blot analysis down-regulation of endogenous SPRY2 (52±4%) was confirmed upon over-expression of miR-21 for 48 hr (FIG. 8d). Since sprouty negatively regulates erk1/2, phospho-erk1/2 was used as a marker for monitoring changes in Spry2 function that would be regulated by changes in its levels. […] Thus, SPRY2 is a downstream target of miR-21 (could be a direct or indirect target at this juncture) and has limiting cellular concentrations.
The physiological relevance of these miR-21-induced outgrowths were assessed. After treatment of the cells with isoproterenol and staining them with an antibody against the sarcomeric protein titin, cellular outgrowth that were connecting or reaching out to adjacent cells was observed (FIG. 9a). The striated pattern of titin staining reflects the presence of sarcomeres even within these branches. This effect was wide spread in all observed fields (4±3 branches/cell). Impressively, these outgrowths were abrogated by the miR-21 eraser or over-expression of SPRY2 (FIG. 9a). […] Similar results were obtained when cells were treated the a virus over-expressing β2AR (supplementary FIG. 9s). While FIG. 7 confirms that isoproterenol and β2AR induce upregulation of miR-21, FIG. 9b confirms that they also induce 70±22% downregulation of SPRY2 protein (FIG. 9b). […]

The subject of a further assay is cardiocytes. The experiment in a line: Cellular outgrowths/branches of cultured cardiocytes. Type of assay: cell-based, rat. The note with it: cardiocytes treated with isoproterenol, titin staining. As for the experimental part: Cell cultures and adenovirus Infection—Neonatal cardiac myocytes were prepared from Sprague Dawley rat hearts as previously described, using both pre-plating and percoll gradients for enriching of myocytes. Adult cardiac myocytes were prepared as previously described.
But after 48-72 h in culture extensive cellular outgrowths (4±3 branches/cell) were noticed that varied in length (44±28 μm) depending on the distance between neighboring cells (FIG. 8c). Sprouty, a known inhibitor of branching morphogenesis and neurite outgrowth, is predicted to be a miR-21 target by TargetScanS and PicTar miRNA target prediction software, each using a unique set of algorithms. To confirm its potential in mediating miR-21's branching effects, it was independently knocked down using adenoviral delivered short-hairpin RNA (see FIG. 8e).
The physiological relevance of these miR-21-induced outgrowths were assessed. After treatment of the cells with isoproterenol and staining them with an antibody against the sarcomeric protein titin, cellular outgrowth that were connecting or reaching out to adjacent cells was observed (FIG. 9a). The striated pattern of titin staining reflects the presence of sarcomeres even within these branches. This effect was wide spread in all observed fields (4±3 branches/cell). Impressively, these outgrowths were abrogated by the miR-21 eraser or over-expression of SPRY2 (FIG. 9a). […]

The next assay concerns miR-199a. The experiment in a line: Northern blotting of miR-199a in myocytes. In kind it is cell-based, rat. The settings on record: 100 μM, 16 h.
Description: g. […] Total RNA was then extracted and analyzed by Northern blotting for the miRNA indicated on the left (n=2).
as §2

For the molecule `Oc1ccc(C=Cc2cc(O)cc(O)c2)cc1` [resveratrol], the Sirt1 expression result with Sirt1 was “increase”.

As for `NC(=O)c1cccnc1` [nicotinamide], in assay [1], the “Sirt1-induced knockdown of PHD2” value is listed as “reversed”. Turning to `CC(C)NCC(O)c1ccc(O)c(O)c1` (stereo not drawn) [isoproterenol], the miR-21 level entry in the assay with miR-21 is “upregulation”. The “downregulation of SPRY2 protein” value with SPRY2 was 70±22%. Also, the cellular outgrowths with cardiocytes was found to be 4±3 branches/cell. As to `Nc1ncnc2c1ncn2[C@@H]1O[C@H](CO)[C@@H](O)[C@H]1O` [adenosine], the miR-199a level result in the assay on miR-199a is “downregulation”.

Source of the values: patent publication US9051568B2, “Anti-sense microrna expression vectors” (Rutgers, The State University of New Jersey, priority 2008, dated 2015).
